Values of other authors in US20070110685A1, “Combination therapy for the treatment of immunoinflammatory disorders” (priority 2005, published 2007).

CO[C@H]1C[C@@H]2CC[C@@H](C)[C@@](O)(O2)C(=O)C(=O)N2CCCC[C@H]2C(=O)O[C@H]([C@H](C)C[C@@H]2CC[C@@H](O)[C@H](OC)C2)CC(=O)[C@H](C)/C=C(\C)[C@@H](O)[C@@H](OC)C(=O)[C@H](C)C[C@H](C)/C=C/C=C/C=C/1C [Rapamycin]
absorption after oral administration: absorbed rapidly and completely
